Test results reported in patent publication US20080279961A1, “TELOMERE TARGETING AGENTS AS STEM CELLS DIRECTED TREATMENTS” (priority 2007, published 2008).

Assays:
[1] = tolerability in xenograft studies (body weight, deaths, MTD)
Experimental: For the first in vivo experiment, tumor fragments (5×5 mm) from untreated donor animals were implanted subcutaneously into both flanks of recipient mice. Treatment was initiated 6 days after transplantation (=day 0, median tumor volume of ˜70 mm^3). Animals were randomized into groups following Lindner's randomization tables and treated by oral gavage with 5 mg/kg/d RHPS4 or vehicle (phosphate buffered saline) respectively (n=5-8 animals per group). […] Drug administration was repeated twice weekly for 8 times (Q3dx8) after randomization. Tumor growth was followed twice weekly by serial caliper measurement, body weights were recorded, and tumor volumes were calculated using the standard formula (length×width^2)/2, where length is the largest dimension and width the smallest dimension perpendicular to the length (Alley et al., 2004; Geran et al., 1972). The median relative tumor volume was plotted against time. Relative tumor volumes were calculated for each single tumor by dividing the tumor volume on day X by that on day 0 (time of randomization). Growth curves were analyzed in terms of tumor inhibition (treated/control, T/C, calculated as median tumor weight of treated divided by median tumor weight of control animals times 100). Statistical data analysis was done using non-parametrical Wilcoxon Mann-Whitney statistics. Median relative tumor volumes of each treatment group were compared with those of the vehicle control groups. P values less than 0.05 were considered statistically significant. SPSS 2000, SYSTAT version 10 software was used.
To conduct combination treatment with Paclitaxel, after 4 serial propagations of RHPS4 treated tumor tissue in nude mice (FIG. 1), RHPS4 was combined with Paclitaxel. Single agent Paclitaxel was given at 20 mg/kg i.v. on days 1 and 15. In combination with RHPS4 (given at 5 mg/kg p.o. twice weekly), only a single dose of Paclitaxel (20 mg/kg i.v.) was administered on day 1. Tumor growth parameters and body weight were assessed as described above.

water solubility = format: physicochemical
Text: RHPS4 was synthesized as described (Heald et al 2002). RHPS4 is water-soluble and was therefore dissolved in phosphate buffered saline (PBS). For in vitro studies paclitaxel (Taxol) was purchased from Sigma (St. Louis, Mo.) and dissolved in dimethylsulfoxide (DMSO); for in vivo experiments the clinical formulation was used and obtained Cremophor from Bristol-Myers Squibb, New York, N.Y.

COS(=O)(=O)[O-].Cc1cc2c3c([n+](C)c4ccc(F)cc4c3c1)-c1cc(F)ccc1N2C [RHPS4, 3,11-difluoro-6,8,13-trimethyl-8H-quino[4,3,2-kl]acridinium methosulfate]
Deaths [n/n], drug related death per mice per group ([1]; Passage #1): 0/5
Deaths [n/n], drug related death per mice per group ([1]; Passage #2): 0/6
Deaths [n/n], drug related death per mice per group ([1]; Passage #3): 0/8
Deaths [n/n], drug related death per mice per group ([1]; Passage #4): 0/5
tolerability ([1]; mouse, in vivo): well tolerated
1/2 maximal tolerated dose ([1]; oral, mouse strain used): 5 mg/kg/day
solubility in water (water solubility): water-soluble
